For assay [1], the target named is T1, TrkA (Homo sapiens (Human), UniProt P04629). The assay can be described thus: Measurement of TrkA enzyme-inhibiting activity (LanthaScreen TR-FRET kinase assay). It counts as biochemical. Conditions: final ATP 150 μM, read-out: TrkA inhibitory activity (IC50; μM). On the procedure: TrkA-inhibiting activity was measured according to the following method using LanthaScreen™ kinase assay reagents (Invitrogen; Fluorescein-Poly GT, LanthaScreen™ Tb-PY20 and TR-FRET Dilution Buffer), TrkA (Invitrogen), ATP (Sigma-Aldrich), a kinase reaction buffer (50 mM HEPES buffer (Sigma-Aldrich) (pH 7.5) containing 0.01% Brij35 (Sigma-Aldrich), 10 mM MgCl2 (Sigma-Aldrich) and 1 mM EGTA (Sigma-Aldrich)) and 0.5 M EDTA (pH 8.0) (Invitrogen).
T1 sequence (P04629 33-796): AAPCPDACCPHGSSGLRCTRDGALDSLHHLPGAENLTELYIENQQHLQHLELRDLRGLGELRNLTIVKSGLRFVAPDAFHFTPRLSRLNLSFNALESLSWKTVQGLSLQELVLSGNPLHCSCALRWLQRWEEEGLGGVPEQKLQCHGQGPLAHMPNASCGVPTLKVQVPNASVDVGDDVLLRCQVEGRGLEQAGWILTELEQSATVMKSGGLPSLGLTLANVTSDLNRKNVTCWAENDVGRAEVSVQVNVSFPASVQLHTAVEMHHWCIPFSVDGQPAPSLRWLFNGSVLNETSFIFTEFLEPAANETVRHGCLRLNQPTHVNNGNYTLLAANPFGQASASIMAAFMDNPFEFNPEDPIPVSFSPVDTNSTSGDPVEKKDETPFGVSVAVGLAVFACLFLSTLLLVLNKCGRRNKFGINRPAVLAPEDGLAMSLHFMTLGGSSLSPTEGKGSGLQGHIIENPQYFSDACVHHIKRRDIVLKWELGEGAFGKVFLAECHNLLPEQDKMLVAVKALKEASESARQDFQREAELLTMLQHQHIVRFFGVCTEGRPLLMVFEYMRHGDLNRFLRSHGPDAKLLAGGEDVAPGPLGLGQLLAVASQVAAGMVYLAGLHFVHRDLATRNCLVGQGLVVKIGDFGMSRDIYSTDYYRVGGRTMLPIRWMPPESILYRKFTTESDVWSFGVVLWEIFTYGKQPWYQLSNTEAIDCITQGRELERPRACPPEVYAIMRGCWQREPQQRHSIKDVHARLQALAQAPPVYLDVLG
The present compound was dissolved in dimethylsulfoxide (hereinafter abbreviated as DMSO) to prepare a 10 mM solution. The test compound at 10 mM was distributed into a 96-well plate and serially diluted with DMSO with the geometrical ratio of 3. The serial dilutions (DMSO solutions) were diluted with the kinase reaction buffer to 20-fold to prepare solutions of the present compound with 5-times concentrations (DMSO concentration: 5%). TrkA was diluted with the kinase reaction buffer to prepare a solution at 38.5 ng/mL (enzyme solution). Adenosine triphosphate (hereinafter abbreviated as ATP) was preliminarily diluted in distilled water to prepare a 10 mM solution which was then divided into containers and stored at −20° C. The 10 mM ATP solution and Fluorescein-Poly GT were diluted in the kinase reaction buffer to prepare a solution containing […] of ATP and 500 nM of Fluorescein-Poly GT (ATP-substrate solution). EDTA (0.5 M; pH 8.0) and LanthaScreen™ Tb-PY20 were diluted in the TR-FRET Dilution Buffer to prepare a solution containing 20 mM of EDTA and 4 nM of LanthaScreen™ Tb-PY20 (detection buffer).
The solutions of the present compound (5 μL/well) and the enzyme solution (10 μL/well) were added to a 96-half well assay plate and the plate was shaken at room temperature for 10 minutes on a plate shaker (IKA™ MTS2/4 digital microplate, IKA Japan K.K.). As a control and a blank, the kinase reaction buffer containing 5% DMSO (5 μL/well) was added in place of the solution of the present compound. As a blank, the kinase reaction buffer (10 μL/well) was added in the place of the enzyme solution. The ATP-substrate solution (10 μL/well) was then added to the plate to initiate kinase reaction and the plate was shaken in the dark at room temperature for 1 hour on the plate shaker (final concentration of TrkA: 15.4 ng/mL, final concentration of the substrate: 200 nM and final concentration of ATP: 150 μM). Kinase reaction was terminated by adding the detection buffer (25 μL/well) to the plate and the plate was shaken in the dark at room temperature for 30 minutes on the plate shaker. On an Analyst GT (Molecular Devices Japan, K.K.) the wells were irradiated with excitation light at 340 nm and the fluorescence intensities at 520 nm and 495 nm were measured. The fluorescence intensity at 520 nm for each well was divided by the fluorescence intensity at 495 nm to calculate the time resolved fluorescence resonance energy transfer (TR-FRET) ratio.
The inhibition rate (%) of the present compound was calculated according to the following Equation 1: Inhibition rate (%)={1−(AX−AB)/(AC−AB)×100 Equation 1
wherein AX: the TR-FRET ratio when the present compound is added;
AB: the TR-FRET of the blank; and
AC: the TR-FRET of the control.
The value for 50% inhibition by the present compound (IC50 value) was calculated from the inhibition curve based on the inhibition rate of the present compound at respective concentrations.
On the technique in general: Time-resolved FRET reads energy transfer from a long-lived donor to a nearby acceptor.

The target of assay [2] is T1, TrkA. The assay can be described thus: TrkA kinase-inhibiting activity using human TrkA expressing cells (CellSenser TrkA-NFAT-bla CHO-K1, NGF-stimulated reporter assay). The settings on record: CHO-K1 cells expressing human TrkA and NFAT-bla; NGF 50 ng/ml; read-out: TrkA inhibitory activity (IC50; μM). It counts as cell-based. On the procedure: TrkA kinase-inhibiting activity in cell systems was measured using CHO-K1 cells expressing human TrkA and NFAT-bla (CellSenser™ TrkA-NFAT-bla CHO-K1 cells, Invitrogen).
On the day before the assay, CellSenser™ TrkA-NFAT-bla CHO-K1 cells were suspended in an assay medium (Opti-MEM1 Reduced Serum Medium (Invitrogen) containing 0.5% dialysed fetal bovine serum (Invitrogen), 0.1 mM nonessential amino acids (Invitrogen), 1 mM sodium pyruvate (Invitrogen) and antibiotics (100 U/mL penicillin and 100 μg/mL streptomycin (Invitrogen)) and plated at a density of 2.4×10^4 cells/40 μL/well in a 96-well clear bottom plate (Corning, Catalogue No.: 3882). In some wells were added only the assay medium at 40 μL/well (Cell-free). On the day of the assay, 10 mM of the present compound (DMSO solution) was distributed in a 96-well plate (Costar, Catalogue No.: 3363) and serially diluted with DMSO with the geometrical ratio of 3. The serial dilutions were diluted with the assay medium to 100-fold to prepare a solution of the present compound with a 10-times concentration (DMSO concentration: 1%). To the plate where cells were plated was added the present compound at 5 μL/well and the plate was incubated in a CO2 incubator with 5% CO2, 95% Air at 37° C. for 30 minutes. For a control and a blank, the assay medium containing 1% DMSO was added at 5 μL/well in place of the solution of the present compound. Subsequently the assay medium containing NGF (Mouse 2.5s, Natural, Invitrogen) was added to the plate at 5 µL/well (final concentration of NGF: 50 ng/ml) and the plate was incubated in a CO2 incubator with 5% CO2, 95% Air at 37° C. for 5 hours. For a group of blanks, the assay medium was added in place of NGF at 5 μL/well. A reporter assay detection reagent (10 μL/well) was added to the plate and the plate was then incubated in the dark at room temperature for 120 minutes. The reporter assay detection reagent was prepared from LiveBLAzer™-FRET B/G Loading Kit (Invitrogen). On an Analyst GT (Molecular Devices Japan, K.K.) the wells were irradiated with excitation light at 405 nm and the fluorescence intensities at 460 nm and 530 nm were measured. The time resolved fluorescence resonance energy transfer (TR-FRET) ratio of each well was calculated according to the following Equation 2. TR-FRET Ratio=(A460X−A460F)/(A530X−A530F) Equation 2
wherein A460X: the fluorescence intensity at 460 nm of the present compound, control or blank;
A460F: the fluorescence intensity at 460 nm of the Cell-free;
A530X: the fluorescence intensity at 530 nm of the present compound, control or blank; and
A530F: the fluorescence intensity at 530 nm of the Cell-free. […]
The IC50 value of the present compound was calculated from the inhibition curve based on the inhibition rate of the present compound at respective concentrations.

Among the data in patent US9242977B2, “Trk-inhibiting compound” (ONO PHARMACEUTICAL CO., LTD., priority 2012, dated 2016) are IC50 values, retold here.

Take `CC(=O)Nc1ccc(-n2nc(C(C)(C)C)cc2NC(=O)Nc2cnc(Oc3ccc(-c4cnc(N5CCCC5=O)s4)cc3)nc2)cc1` [Example 66-28, N-{4-[3-(2-methyl-2-propanyl)-5-{[(2-{4-[2-(2-oxo-1-pyrrolidinyl)-1,3-thiazol-5-yl]phenoxy}-5-pyrimidinyl)carbamoyl]amino}-1H-pyrazol-1-yl]phenyl}acetamide]: the IC50 – broadly, the concentration needed to halve the response being measured – in assay [1] worked out at 0.08 µM; in assay [2], 0.014 µM.

As for `Cc1ccccc1-n1nc(C(F)(F)F)cc1NC(=O)Nc1cnc(Oc2ccc(-c3cnc(N4CCCC4=O)s3)cc2)nc1` [Example 72-1, 1-[1-(2-methylphenyl)-3-(trifluoromethyl)-1H-pyrazol-5-yl]-3-(2-{4-[2-(2-oxo-1-pyrrolidinyl)-1,3-thiazol-5-yl]phenoxy}-5-pyrimidinyl)urea], the IC50 in assay [1] is 0.05 µM; in assay [2] it was 0.011 µM. The like results for `COC(=O)c1cccc(-n2nc(C(C)(C)C)cc2NC(=O)Nc2cnc(Oc3ccc(-c4cnc(N5CCCC5=O)s4)cc3)nc2)c1` [Example 66-27, Methyl 3-[3-(2-methyl-2-propanyl)-5-{[(2-{4-[2-(2-oxo-1-pyrrolidinyl)-1,3-thiazol-5-yl]phenoxy}-5-pyrimidinyl)carbamoyl]amino}-1H-pyrazol-1-yl]benzoate] were, in that order, 0.13 µM and 0.01 µM.

Regarding `O=C(Nc1cnc(Oc2ccc(-c3cnc(N4CCCCC4=O)s3)cc2)nc1)Nc1cc(C(F)(F)F)cnc1-c1ccc(C(F)(F)F)nc1` [Example 9, 1-[5,6′-bis(trifluoromethyl)-2,3′-bipyridin-3-yl]-3-(2-{4-[2-(2-oxo-1-piperidinyl)-1,3-thiazol-5-yl]phenoxy}-5-pyrimidinyl)urea], the values for the IC50 in assay [1] and in assay [2] were 0.16 µM and 0.093 µM, respectively. Consider `CC(C)(C)c1cc(NC(=O)Nc2cnc(Oc3ccc(-c4cnc(N5CCCC5=O)s4)cc3)nc2)n(C2CCOCC2)n1` [Example 80-2, 1-[3-(2-methyl-2-propanyl)-1-(tetrahydro-2 H-pyran-4-yl)-1H-pyrazol-5-yl]-3-(2-{4-[2-(2-oxo-1-pyrrolidinyl)-1,3-thiazol-5-yl]phenoxy}-5-pyrimidinyl)urea], for which the IC50 in assay [1] is 0.07 µM.

Turning to `CC(C)(C)c1cc(NC(=O)Nc2cnc(Oc3ccc(-c4cnc(N5CCCC5=O)s4)cc3)nc2)n(-c2ccc3c(c2)CCO3)n1` [Example 66-19, 1-[1-(2,3-dihydro-1-benzofuran-5-yl)-3-(2-methyl-2-propanyl)-1H-pyrazol-5-yl]-3-(2-{4-[2-(2-oxo-1-pyrrolidinyl)-1,3-thiazol-5-yl]phenoxy}-5-pyrimidinyl)urea], the IC50 in assay [1] amounted to 0.02 µM; in assay [2] it was 0.004 µM. The like results for `O=C(Nc1cnc(Oc2ccc(-c3cnc(N4CCCC4=O)s3)cc2)nc1)Nc1cc(C(F)(F)F)cnc1-c1ccc(C(F)(F)F)nc1` [Example 50, 1-[5,6′-bis(trifluoromethyl)-2,3′-bipyridin-3-yl]-3-(2-{4-[2-(2-oxo-1-pyrrolidinyl)-1,3-thiazol-5-yl]phenoxy}-5-pyrimidinyl)urea] were, in that order, 0.04 µM and 0.012 µM. Regarding `Cc1ccccc1-n1nc(C(C)(F)F)cc1NC(=O)Nc1cnc(Oc2ccc(-c3cnc(N4CCCC4=O)s3)cc2)nc1` [Example 72-3, 1-[3-(1,1-difluoroethyl)-1-(2-methylphenyl)-1H-pyrazol-5-yl]-3-(2-{4-[2-(2-oxo-1-pyrrolidinyl)-1,3-thiazol-5-yl]phenoxy}-5-pyrimidinyl)urea], the IC50 in assay [1] was determined as 0.06 µM; in assay [2], 0.018 µM.

With `Cc1ccc(-c2ncc(C(F)(F)F)cc2NC(=O)Nc2cnc(Oc3ccc(-c4cnc(N5CCCCCC5=O)s4)cc3)nc2)cc1C` [Example 59, 1-[2-(3,4-dimethylphenyl)-5-(trifluoromethyl)-3-pyridinyl]-3-(2-{4-[2-(2-oxo-1-azepanyl)-1,3-thiazol-5-yl]phenoxy}-5-pyrimidinyl)urea], the half-inhibitory concentration (IC50) worked out at 0.19 µM in assay [1] and 0.07 µM in assay [2]. The like results for `CC(C)(C)c1cc(NC(=O)Nc2cnc(Oc3ccc(-c4cnc(N5CCCC5=O)s4)cc3)nc2)n(-c2ccc(S(N)(=O)=O)cc2)n1` [Example 66-72, 4-[3-(2-methyl-2-propanyl)-5-{[(2-{4-[2-(2-oxo-1-pyrrolidinyl)-1,3-thiazol-5-yl]phenoxy}-5-pyrimidinyl)carbamoyl]amino}-1H-pyrazol-1-yl]benzenesulfonamide] were, in that order, 0.05 µM and 0.032 µM.

For `O=C(Nc1cnc(Oc2ccc(-c3cnc(N4CCCC4=O)s3)cc2)nc1)Nc1cc(C2CC2)nn1-c1ccccc1` [Example 72-7, 1-(3-cyclopropyl-1-phenyl-1H-pyrazol-5-yl)-3-(2-{4-[2-(2-oxo-1-pyrrolidinyl)-1,3-thiazol-5-yl]phenoxy}-5-pyrimidinyl)urea], the IC50 in assay [1] came out at 0.03 µM; in assay [2], 0.033 µM. In the case of `Cn1ncc2cc(-n3nc(C(C)(C)C)cc3NC(=O)Nc3cnc(Oc4ccc(-c5cnc(N6CCCC6=O)s5)cc4)nc3)ccc21` [Example 71, 1-[1-(1-methyl-1H-indazol-5-yl)-3-(2-methyl-2-propanyl)-1H-pyrazol-5-yl]-3-(2-{4-[2-(2-oxo-1-pyrrolidinyl)-1,3-thiazol-5-yl]phenoxy}-5-pyrimidinyl)urea], the IC50 in assay [1] was 0.03 µM; in assay [2], 0.002 µM.

As to `CC(C)c1ncc(C(F)(F)F)cc1NC(=O)Nc1cnc(Oc2ccc(-c3cnc(N4CCCC4=O)s3)cc2)nc1` [Example 84-41, 1-[2-isopropyl-5-(trifluoromethyl)-3-pyridinyl]-3-(2-{4-[2-(2-oxo-1-pyrrolidinyl)-1,3-thiazol-5-yl]phenoxy}-5-pyrimidinyl)urea], the IC50 in assay [1] was found to be 0.09 µM.
